The subject of this assay is P12-Ichikawa. Put plainly: cell viability relative to DMSO control; higher = less cytotoxic. As to conditions: 48 h. The method in brief: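 Viability is expressed as a percentage of DMSO wells within each plate, and cell-free wells serve as background. Seeding densities in the 1536-well plates (5 μl) were 500 cells/well for NOMO1 or SEM leukemia cells and 1000 cells/well for P12-Ichikawa. Each line was adapted for at least four passages in each medium. Library compounds in DMSO were pin-dosed at 47 μM to 0.79 nM (11 points, threefold), and CellTiter-Glo One luminescence was read after 48 h at 37°C.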

Where [1] appears, read: HPLM + 10% dialyzed FBS, 0.000781 µM.
[2] abbreviates: HPLM + 10% dialyzed FBS, 0.00234 µM.
[3] abbreviates: HPLM + 10% dialyzed FBS, 0.00702 µM.
The mark [4] stands for this setting: HPLM + 10% dialyzed FBS, 0.0211 µM.
Setting [5] is: HPLM + 10% dialyzed FBS, 0.0632 µM.
Setting [6] is: HPLM + 10% dialyzed FBS, 0.19 µM.
[7] abbreviates: HPLM + 10% dialyzed FBS, 0.569 µM.
[8] abbreviates: HPLM + 10% dialyzed FBS, 1.71 µM.
Where [9] appears, read: HPLM + 10% dialyzed FBS, 5.12 µM.
The mark [10] stands for this setting: HPLM + 10% dialyzed FBS, 15.4 µM.
Setting [11] is: HPLM + 10% dialyzed FBS, 46.1 µM.
The mark [12] stands for this setting: RPMI 5 mM glucose + 10% FBS, 0.000781 µM.
[13] abbreviates: RPMI 5 mM glucose + 10% FBS, 0.00234 µM.
The mark [14] stands for this setting: RPMI 5 mM glucose + 10% FBS, 0.00702 µM.
The mark [15] stands for this setting: RPMI 5 mM glucose + 10% FBS, 0.0211 µM.
The mark [16] stands for this setting: RPMI 5 mM glucose + 10% FBS, 0.0632 µM.
[17] abbreviates: RPMI 5 mM glucose + 10% FBS, 0.19 µM.
The mark [18] stands for this setting: RPMI 5 mM glucose + 10% FBS, 0.569 µM.
Setting [19] is: RPMI 5 mM glucose + 10% FBS, 1.71 µM.
The mark [20] stands for this setting: RPMI 5 mM glucose + 10% FBS, 5.12 µM.
[21] abbreviates: RPMI 5 mM glucose + 10% FBS, 15.4 µM.
Setting [22] is: RPMI 5 mM glucose + 10% FBS, 46.1 µM.
Where [23] appears, read: RPMI 5 mM glucose + 10% dialyzed FBS, 0.000781 µM.
[24] abbreviates: RPMI 5 mM glucose + 10% dialyzed FBS, 0.00234 µM.
[25] abbreviates: RPMI 5 mM glucose + 10% dialyzed FBS, 0.00702 µM.
The mark [26] stands for this setting: RPMI 5 mM glucose + 10% dialyzed FBS, 0.0211 µM.
Where [27] appears, read: RPMI 5 mM glucose + 10% dialyzed FBS, 0.0632 µM.
Setting [28] is: RPMI 5 mM glucose + 10% dialyzed FBS, 0.19 µM.
Setting [29] is: RPMI 5 mM glucose + 10% dialyzed FBS, 0.569 µM.
[30] abbreviates: RPMI 5 mM glucose + 10% dialyzed FBS, 1.71 µM.
Setting [31] is: RPMI 5 mM glucose + 10% dialyzed FBS, 5.12 µM.
Setting [32] is: RPMI 5 mM glucose + 10% dialyzed FBS, 15.4 µM.
Setting [33] is: RPMI 5 mM glucose + 10% dialyzed FBS, 46.1 µM.

The structures appear in SMILES notation.

By cell viability is commonly meant a read-out of living cells in per cent, often relative to untreated cells.

As for `CN1CC/C(CC1)=C3\c4ccccc4CC(=O)c2sccc23`, the cell viability came out at 117% under setting [1]; 127% under setting [2]; 123% under setting [3]; 120% under setting [4]; 119% under setting [5]; 129% under setting [6]. Further, the cell viability was 134% under setting [7]; 126% under setting [8]; 129% under setting [9]; 120% under setting [10]; 109% under setting [11].
As for `CCCc1nc2c(C)cc(-c3nc4ccccc4n3C)cc2n1Cc1ccc(-c2ccccc2C(=O)O)cc1`, the cell viability worked out at 123% under setting [1]; 124% under setting [2]; 122% under setting [3]; 125% under setting [4]; 126% under setting [5]; 135% under setting [6]. Also, the cell viability is, setting by setting: under setting [7], 130%; under setting [8], 127%; under setting [9], 123%; under setting [10], 133%; under setting [11], 123%.
On to `NC(=O)c1ccc(-c2nc(-c3ccc4c(c3)OCO4)c(-c3ccccn3)[nH]2)cc1`, for which the cell viability runs as follows: under setting [1], 124%; under setting [2], 124%; under setting [3], 123%; under setting [4], 107%; under setting [5], 127%; under setting [6], 123%. Also, the cell viability under setting [7] was determined as 116%; the cell viability under setting [8] came out at 114%; the cell viability under setting [9] was 110%; the cell viability under setting [10] was 112%; the cell viability under setting [11] stood at 100%; the cell viability under setting [12] was 122%. Moreover, the cell viability was determined as 130% under setting [13]; 116% under setting [14]; 109% under setting [15]; 118% under setting [16]; 111% under setting [17]; 108% under setting [18]. Further, the cell viability under setting [19] worked out at 116%, the cell viability under setting [20] was found to be 100%, the cell viability under setting [21] came to 107% and the cell viability under setting [22] worked out at 93.8%.
Turning to `O=C(O)c1ccc(-c2c[nH]c3ncc(-c4ccccc4)cc23)cc1C1CCCC1`, the cell viability under setting [1] stood at 108%; the cell viability under setting [2] was determined as 113%; the cell viability under setting [3] is 123%; the cell viability under setting [4] turned out to be 116%; the cell viability under setting [5] amounted to 122%; the cell viability under setting [6] amounted to 119%. Moreover, the cell viability under setting [7] is 120%; the cell viability under setting [8] was 122%; the cell viability under setting [9] stood at 117%; the cell viability under setting [10] turned out to be 80.8%; the cell viability under setting [11] turned out to be 92.6%; the cell viability under setting [12] is 119%. For the same molecule, the cell viability under setting [13] was 131%; the cell viability under setting [14] worked out at 113%; the cell viability under setting [15] was 126%; the cell viability under setting [16] is 134%; the cell viability under setting [17] amounted to 133%; the cell viability under setting [18] came out at 138%. Moreover, the cell viability runs as follows: under setting [19], 131%; under setting [20], 129%; under setting [21], 67%; under setting [22], 105%; under setting [23], 114%; under setting [24], 124%. For the same molecule, the cell viability runs as follows: under setting [25], 126%; under setting [26], 130%; under setting [27], 132%; under setting [28], 125%; under setting [29], 138%; under setting [30], 133%. Further, the cell viability under setting [31] was 121%, the cell viability under setting [32] came to 73.6% and the cell viability under setting [33] turned out to be 96.3%.
`CC(Cc1ccc(O)c(O)c1)(NN)C(=O)O` (stereo not given): the cell viability stood at 110% under setting [1]; 112% under setting [2]; 107% under setting [3]; 111% under setting [4]; 130% under setting [5]; 114% under setting [6]. For the same molecule, the cell viability under setting [7] turned out to be 105%; the cell viability under setting [8] is 102%; the cell viability under setting [9] was determined as 100%; the cell viability under setting [10] amounted to 101%; the cell viability under setting [11] came to 78.5%; the cell viability under setting [12] worked out at 102%. Also, the cell viability under setting [13] was 113%; the cell viability under setting [14] came to 122%; the cell viability under setting [15] turned out to be 120%; the cell viability under setting [16] was 113%; the cell viability under setting [17] was determined as 111%; the cell viability under setting [18] came to 108%. In addition, the cell viability under setting [19] amounted to 100%; the cell viability under setting [20] was found to be 112%; the cell viability under setting [21] came to 113%; the cell viability under setting [22] amounted to 65.3%; the cell viability under setting [23] was 107%; the cell viability under setting [24] was 116%. Moreover, the cell viability is 115% under setting [25]; 115% under setting [26]; 114% under setting [27]; 109% under setting [28]; 108% under setting [29]; 104% under setting [30]. In addition, the cell viability is, setting by setting: under setting [31], 110%; under setting [32], 110%; under setting [33], 55.7%.

For the origin of these results see the supplement of paper PMC11451515.
